Laboratory results from patent publication US20140294849A1, “COMPOSITIONS AND USES” (GLAXOSMITHKLINE BIOLOGICALS SA, priority 2011, published 2014).

Tested on: CD11b+ monocytes
Experiment: In vivo uptake assay of Aβ42 after immunization or passive immunotherapy
Parameters: species or system C57BL/6 mice
Settings: Example 20
Experimental: Mice: C57BL/6 female mice were purchased from Charles River. […]
[…] At day 22, 5 μg per mouse of fluorescent HiLyte Fluor™ 488-labeled Amyloid β1-42 (Anaspec, Fremont, Calif.) was injected in the tail vein. […] Plasma of pooled blood was decanted and saved for measurement of antibody titres by ELISA. Red blood cell lysis was performed twice with Ammonium Chloride-based Buffer (Sigma, Steinheim, Germany) and cells were counted with the EasyCount™ System (Immunicon).
FACS analysis: 500,000 cells were aliquoted in a 96-well plate, washed once, incubated for 10 min. on ice in the presence of Rat anti-Mouse CD16/CD32 (clone 2.4G2—BD Fc Block™) and further stained for 30 min. with a combination of the following directly conjugated antibodies at their pre-determined optimal concentration: PE-Hamster anti-Mouse CD3 (clone 145-2C11), Rat anti-Mouse CD45R/B220 (clone RA3-6B2), Rat anti-Mouse Ly-6G (clone 1A8), Mouse anti-Mouse NK1.1 (clone PK136), APC-conjugated Rat anti-Mouse CD11b (clone M1/70), PE-Cy7-conjugated Hamster anti-Mouse CD11c (clone HL3), (all from BD PharMingen). Cells were finally washed twice and fixed for 15 min. with a 2% paraformaldehyde solution in PBS. FMOs controls were always included in the assays.
Samples were acquired on a flow cytometer (BD FACSCanto II) and data analyzed with the FACSDiva software (BD Biosciences).
Monocytes were identified by their Side/Forward scatter properties, excluding debris and gated as CD3-/CD45R/B220-/Ly-6G-/NK1.1-(Lineage-)/CD11b+ cells. Aβ uptake was assessed by reporting the percentage and Mean Fluorescence Intensity (GeoMean) of positive HiLyte Fluor™ 488 Aβ1-42 cells among gated monocytes.
Mice were passively immunized with a constant dose of anti Aβ monoclonal antibody (15 ug of 2E7)+different dose of immunomodulators (CRX601 or CRX601/AS03 or AS01B). […] Red blood cell lysis was performed twice with Ammonium Chloride-based Buffer (Sigma, Steinheim, Germany) and cells were counted with the EasyCount™ System (Immunicon). […]

CCCCCCCCCCC[C@H](CC(=O)N[C@H]1[C@H](OC[C@H](NC(=O)C[C@@H](CCCCCCCCCCC)OCCCCCCCCCC)C(=O)O)O[C@H](CO)[C@@H](OP(=O)(O)O)[C@@H]1OC(=O)C[C@@H](CCCCCCCCCCC)OCCCCCCCCCC)OCCCCCCCCCC [CRX601]
antibody-mediated Aβ uptake when combined with AS03 emulsion (CRX601 20 ug with AS03): partially quenched | antibody-mediated Aβ uptake (CRX601 at 20 ug single i.m., 15 ug of 2E7, 24 hrs): highest Aβ uptake | dose dependence of antibody-mediated Aβ uptake (different doses, constant 2E7): Dose-response observed
